Measurements taken from patent US11951197B2, “Use of volatile compounds to modulate the perception of floral muguet” (FIRMENICH SA, priority 2018, dated 2024).

Experiments:
[1] = target: T1, OR10J5 olfactory receptor (Homo sapiens, UniProt Q8NHC4); test: Dose-response confirmation of enhancer candidates, alone and with EC20 LYRAL®; type: cell-based; settings: response to LYRAL® raised beyond EC20 without measurable intrinsic activity
T1 construct: Flag; Rho (rhodopsin-derived tag); expressed in transfected cells
T1 sequence (Q8NHC4 1-309): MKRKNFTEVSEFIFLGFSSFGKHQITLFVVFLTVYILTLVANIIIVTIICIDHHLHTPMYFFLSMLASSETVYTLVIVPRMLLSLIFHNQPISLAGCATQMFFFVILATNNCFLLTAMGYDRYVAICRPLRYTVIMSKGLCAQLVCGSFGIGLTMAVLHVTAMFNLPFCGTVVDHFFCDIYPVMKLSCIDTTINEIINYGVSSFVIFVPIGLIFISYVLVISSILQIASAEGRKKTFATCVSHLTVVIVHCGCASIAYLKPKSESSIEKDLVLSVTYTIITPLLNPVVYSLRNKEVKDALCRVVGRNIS
Procedure: (§1) A dose response curve showing the activation of OR10J5 in response to the floral muguet compound 3-(4-hydroxy-4-methylpentyl)cyclohex-3-ene-1-carbaldehyde, 4-(4-hydroxy-4-methylpentyl)cyclohex-3-ene-1-carbaldehyde or a mixture thereof (sold under the tradename LYRAL®, hereinafter referred to as “LYRAL®”) is shown in FIG. 1. Using a cell-based assay, OR10J5 activity was tested in a HEK293T cell line wherein the endogenous chaperone RTP1 gene has been activated and the odorant receptor chaperone was expressed according to the methods disclosed in International Patent Application Publication No. WO2016/201153 A1. The Flag-Rho-tagged receptor was co-transfected with the olfactory canonical G-protein Golf and was exposed to a binary mixture of a single concentration of LYRAL® and a test compound.
A library of volatile compounds was used to create binary mixtures of each compound with LYRAL® at approximately EC20, a concentration eliciting only approximately 20% of full activity level of OR10J5 by itself. An activation cell-based assay was used for the initial enhancer candidate identification as disclosed in WO2019122236. Single binary mixture-induced receptor activity was detected by measuring the cAMP increase in the cytosol using an HTRF (Homogenous Time-Resolved Fluorescence unit) based kit (CisBio, cAMP dynamic 2 kit, 62AM4PEJ).
The 37 candidates remaining in Table 2 were identified and were tested in two parallel dose-response experiments to confirm the true enhancement properties of the potential candidates. First, a dose-response of each individual candidate was performed to determine if it was an agonist by itself. Second, the same candidate dose-response curve in the presence of EC20 LYRAL® concentration (generating 20% activity on OR10J5) was assessed for activity level increase.

OR10J5 [2] = target: T2, OR10J5 (Homo sapiens, UniProt Q8NHC4); test: LYRAL® dose-response with a steady concentration of test compound (EC50-fold shift); type: cell-based; settings: LYRAL® + steady concentration of compound vs LYRAL® alone
T2 construct: Flag; Rho (rhodopsin-derived tag); expressed in transfected cells
T2 sequence (Q8NHC4 1-309): T1 sequence (Q8NHC4 1-309)
Procedure: as §1
(§2) LYRAL® enhancement specificity was tested on compounds that were structurally similar to enhancers identified. Dose response curves to LYRAL® were obtained in the presence of a steady concentration of a test compound and compared to a dose-response curve of LYRAL® alone. The resulting enhancement was quantified by means of EC50-fold shift (potency increase) and the efficacy span ratio (efficacy increase).
The EC50-fold shift was obtained by dividing the EC50 of LYRAL®+compound by the reference EC50 of LYRAL® alone. […]

Olfr16 = target: T3, Olfr16 (Mus musculus, UniProt Q62007); test: as above; type: cell-based; settings: Olfr16 (mouse ortholog); LYRAL® + steady concentration of compound vs LYRAL® alone
T3 construct: expressed in transfected cells
T3 sequence (Q62007 1-309): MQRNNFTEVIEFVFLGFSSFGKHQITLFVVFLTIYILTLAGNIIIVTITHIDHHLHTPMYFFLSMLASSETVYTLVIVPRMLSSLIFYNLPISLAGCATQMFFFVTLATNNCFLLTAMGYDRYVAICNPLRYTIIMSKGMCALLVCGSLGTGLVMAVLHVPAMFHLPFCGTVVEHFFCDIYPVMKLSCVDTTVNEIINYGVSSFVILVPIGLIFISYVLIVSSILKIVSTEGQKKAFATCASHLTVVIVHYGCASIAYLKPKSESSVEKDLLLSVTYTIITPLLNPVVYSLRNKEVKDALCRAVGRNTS
Procedure: as §2
The EC50-fold shift was obtained by dividing the EC50 of LYRAL®+compound by the reference EC50 of LYRAL® alone. The span ratio was obtained by dividing the span of LYRAL®+compound by the reference span of LYRAL® alone.

OR10J5 [3] = target: T2, OR10J5; test: LYRAL® dose-response with serial enhancer concentrations, allosteric EC50 shift model; type: cell-based
Procedure: Functional dose-response experiments were performed to reveal the allosteric nature of the interaction between 3-(1,3-benzodioxol-5-yl)-2-methylpropanal, 3-(4-methylcyclohex-3-en-1-yl)butanal, 2,6-dimethylhept-5-enal and heptanal and OR10J5. The level of enhancement of OR10J5's activation was evaluated at distinct concentrations of each enhancer. Using the same cell-based assay described earlier, dose response curves of OR10J5 to LYRAL® in the presence of serial concentrations of the enhancers spanning from 0 to 600 μM were performed, see FIG. 5. The curves were obtained by applying the simplified Allosteric EC50 shift effect equation (available in Prism7) derived from the ternary complex interaction model. The enhancement levels recorded were not linearly dependent on the concentration of the enhancer, and the following key parameters values for α (the cooperativity factor) and KB (the equilibrium dissociation constant of the enhancer) were obtained from the model for each enhancer: 3-(1,3-benzodioxol-5-yl)-2-methylpropanal, α=6.3 and KB=10 μM; 3-(4-methylcyclohex-3-en-1-yl)butanal, α=7.5 and KB=15 μM; 2,6-dimethylhept-5-enal, α=4.1 and KB=16 μM; and heptanal; α=3.2 and KB=51 μM. α>1 is indicative of positive allosteric modulation.

OR10J5 [4] = target: T2, OR10J5; test: (+−)-2,5-dimethyl-2-indanmethanol dose-response with a steady concentration of test compound; type: cell-based; settings: OR10J5
Procedure: OR10J5 activity enhancement was tested with an additional agonist and with one of the test compounds and conditions described in the Examples above. Dose response curves to (+−)-2,5-dimethyl-2-indanmethanol was obtained in the presence of a steady concentration of the test compound and compared to a dose-response curve of the agonist alone. The resulting enhancement was quantified by means of EC50-fold shift (potency increase) and the efficacy span ratio (efficacy increase) as described above.

[5] = Odor detection threshold (ODT) forced-choice triangle tests for LYRAL® with background odor; type: in vivo, human; settings: 28 panelists; enhancer at 0.1% vs neutral compound at 7%; main effect of Material p=0.03, interaction p=0.052
Procedure: Sensitivity of human individuals to LYRAL® was evaluated by performing an odor detection threshold (ODT) test. The ODT test consisted of identifying the concentration for which 50%, preferably 66%, of the panelists are able to determine which of three containers contains the target compound LYRAL® in a series of forced-choice triangle tests. Two tests were performed to calculate the ODT in mixtures containing LYRAL® plus a perceivable background odor of chemically similar molecules a) the enhancer, 3-(4-methylcyclohex-3-en-1-yl)butanal and b) the non-enhancing volatile compound, 3-[(1R)-4-methyl-3-cyclohexen-1-yl]-1-butanol. These two molecules are chemically similar. The perceived intensity of the two background odors was monitored to be isointense to control that the responses recorded answer were intensity independent.
28 panelists were given a series of triangle tests with increasing concentrations of LYRAL® in the presence of 3-(4-methylcyclohex-3-en-1-yl)butanal at a concentration of 0.1%. Within each triangle test, the three samples contained 3-(4-methylcyclohex-3-en-1-yl)butanal at 0.1% and one sample also contained LYRAL®. 28 panelists were given a series of triangle tests with increasing concentration of Lyral® in the presence of 3-[(1R)-4-methyl-3-cyclohexen-1-yl]-1-butanol at a concentration of 7%. […]

Row | Compound | enhancement of OR10J5 LYRAL® activation (true enhancer) [1] | EC50 fold shift of LYRAL® (potency increase) (OR10J5 [2]) [fold] | EC50 fold shift of LYRAL® (potency increase) (Olfr16) [fold] | Kb (OR10J5 [3]) [µM] | α (cooperativity factor) (OR10J5 [3]; enhancer 0 to 600 μM, allosteric EC50 shift equation (Prism7), α>1 indicates positive allosteric modulation) | EC50 fold shift of (+−)-2,5-dimethyl-2-indanmethanol (OR10J5 [4]; agonist + steady concentration of compound vs agonist alone) [fold] | efficacy increase (span ratio) of (+−)-2,5-dimethyl-2-indanmethanol (OR10J5 [4]; within the dynamic range of the dose response) [fold] | proportion of correct LYRAL® detection responses with increasing LYRAL® concentration [5]
1 | CC(C=O)Cc1ccc2c(c1)OCO2 (stereo not drawn) [3-(1,3-benzodioxol-5-yl)-2-methylpropanal] | potent enhancement | 9.2 | 5 | 10 | 6.3 | 8.6 | 1.7 | 
2 | CC1=CC[C@H](C(C)CC=O)CC1 (stereo partly drawn) [3-(4-methylcyclohex-3-en-1-yl)butanal] | potent enhancement |  |  |  |  |  |  | proportion of correct responses increased at a higher rate
